Where two headings read alike, the source gives them in different places.
Legend:
[1] = tested on: Plasmodium falciparum (NF54) proliferative erythrocytic stages; experiment: In vitro activity against Plasmodium falciparum erythrocytic stages; format: cell-based; conditions: for IC50: Plasmodium falciparum; for P. falciparum SI (selectivity index): IC50 in L6 cells divided by IC50 in P. falciparum
Protocol: In parallel, the cytotoxicity of these compounds in rat skeletal myoblasts (L-6 cells) was determined in order to obtain an initial assessment of their selectivity.
(§1) In vitro activity assays against a panel of protozoal parasites, namely Trypanosoma brucei rhodesiense (STIB 900), Trypanosoma cruzi (Tulahuen C4), Leishmania donovani (MHOM/ET/67/L82), and Plasmodium falciparum (NF54), and cytotoxicity tests against mammalian cells (L6-cell line from rat-skeletal myoblasts) were performed according to previously described methods ([2], [3]). All assays were performed in at least three independent replicates.

[2] = tested on: Trypanosoma brucei rhodesiense (STIB 900) bloodstream forms; experiment: In vitro activity against Trypanosoma brucei rhodesiense bloodstream forms; format: cell-based; conditions: for T. b. rhodesiense SI (selectivity index): IC50 in L6 cells divided by IC50 in T. b. rhodesiense; for IC50: Trypanosoma brucei, read-out: T. b. rhodesiense IC50
Protocol: (§2) Based on the antiparasitic bioactivity of the crude extract of MCy12716, angiolams A (1), B (2), C (3), D (4), and F (5) were tested for their in vitro activities against the following protozoan parasites: Trypanosoma brucei rhodesiense (STIB 900) bloodstream forms, Trypanosoma cruzi (Tulahuen C4) amastigotes, Leishmania donovani (MHOM/ET/67/L82) axenic amastigotes, and Plasmodium falciparum (NF54) proliferative erythrocytic stages. In parallel, the cytotoxicity of these compounds in rat skeletal myoblasts (L-6 cells) was determined in order to obtain an initial assessment of their selectivity.
as §1

[3] = tested on: Trypanosoma cruzi (Tulahuen C4) amastigotes; experiment: In vitro activity against Trypanosoma cruzi amastigotes; format: cell-based; conditions: for T. cruzi SI (selectivity index): IC50 in L6 cells divided by IC50 in T. cruzi; for IC50: Trypanosoma cruzi, Tulahuen C4, mean of at least three independent replicates ± SD, read-out: T. cruzi IC50
Protocol: as §2, §1

[4] = tested on: Leishmania donovani (MHOM/ET/67/L82) axenic amastigotes; experiment: In vitro activity against Leishmania donovani axenic amastigotes; format: cell-based; conditions: for L. donovani SI (selectivity index): IC50 in L6 cells divided by IC50 in L. donovani; for IC50: Leishmania donovani, MHOM-ET-67/L82 axenic amastigotes, mean of at least three independent replicates ± SD, read-out: L. donovani IC50
Protocol: as §2, §1

[5] = Cytotoxicity in L6 cells; format: cell-based, rat
Protocol: as §2, §1

[6] = STIB 900, mean of at least three independent replicates ± SD
[7] = NF54, mean of at least three independent replicates ± SD, read-out: P. falciparum IC50
[8] = L6 rat skeletal myoblasts, mean of at least three independent replicates ± SD, read-out: Cytotoxicity in L6 cells IC50

Compound	T. b. rhodesiense SI (selectivity index) [2]	IC50 [2, 6] [µM]	T. cruzi SI (selectivity index) [3]	IC50 [3] [µM]	L. donovani SI (selectivity index) [4]	IC50 [4] [µM]	P. falciparum SI (selectivity index) [1]	IC50 [1, 7] [µM]	IC50 ([5]; rat) [µM]	also measured
CCN(CC)CCCC(C)Nc1ccnc2cc(Cl)ccc12 (centres unmarked) [Chloroquine, reference compound]	–	–	–	–	–	–	–	–	–	IC50 ([1]; NF54, read-out: P. falciparum IC50): 0.004 µM
C=C/C=C(\C)C(=O)CC[C@@H](C)/C=C/[C@@H]1CC[C@@H](C)C(=O)CC(=O)N[C@@H](C)CCC(=O)[C@@H](C)[C@H](O)[C@@H](C)/C=C(\C)C(=O)O1 [Angiolam B, angiolam B]	4.4	6.3 ± 1	≤ 2.1	30.4 ± 10	4.22	6.6 ± 1.9	≥ 30	0.3 ± 0.1	27.8 ± 2	T. cruzi SI (selectivity index) ([3]; listed as Angiolam B (2)): 0.9; P. falciparum SI (selectivity index) ([1]; listed as Angiolam B (2)): 91.6
C=C/C=C(\C)[C@@H](O)CC[C@@H](C)/C=C/[C@@H]1CC[C@@H](C)C(=O)CC(=O)N[C@@H](C)CCC(=O)[C@@H](C)[C@H](O)[C@@H](C)/C=C(\C)C(=O)O1 [Angiolam A, angiolam A]	63.2	1.5 ± 0.6	7.3	12.9 ± 5.3	5.62	16.7 ± 7.3	34.9	2.7 ± 0.5	94 ± 23.7	–
C=C/C=C(\C)[C@@H](O)CC[C@@H](C)/C=C/[C@@H]1CC[C@@H](C)C(=O)CC(=O)N[C@@H](C)CCC(=O)[C@@H](C)[C@H](O)[C@@H](CC)/C=C(\CC)C(=O)O1 [Angiolam F, angiolam F]	2.0	25 ± 1.4	≤ 2.1	24.4 ± 5	2.83	17.6 ± 2.1	37	1.3 ± 0.6	49.9 ± 21.6	T. cruzi SI (selectivity index) ([3]; listed as Angiolam F (5)): 2.1; P. falciparum SI (selectivity index) ([1]; listed as Angiolam F (5)): 37.4
COc1cc([C@@H]2c3cc4c(cc3[C@H](O)[C@H]3COC(=O)[C@H]23)OCO4)cc(OC)c1OC [Podophyllotoxin, reference compound]	–	–	–	–	–	–	–	–	–	IC50 [5, 8]: 0.02 µM
CCCCCCCCCCCCCCCCOP(=O)([O-])OCC[N+](C)(C)C [Miltefosine, reference compound]	–	–	–	–	–	0.53	–	–	–	–
CC/C=C(\C)[C@@H](O)CC[C@@H](C)/C=C/[C@@H]1CC[C@@H](C)C(=O)CC(=O)N[C@@H](C)CCC(=O)[C@@H](C)[C@H](O)[C@@H](C)/C=C(\C)C(=O)O1 [Angiolam C, angiolam C]	6.8	4.5 ± 0.4	≤ 2.1	34 ± 11.6	1.99	15.4 ± 2.3	≥ 30	0.6 ± 0.4	30.6 ± 2.3	T. cruzi SI (selectivity index) ([3]; listed as Angiolam C (3)): 0.9; P. falciparum SI (selectivity index) ([1]; listed as Angiolam C (3)): 53.7
C=C/C=C(\C)[C@@H](O)CC[C@@H](C)/C=C/[C@@H]1CC[C@@H](C)C(=O)CC(=O)N[C@@H](C)CCC(=O)[C@@H](C)[C@H](O)[C@@H](C)/C=C(\CC)C(=O)O1 [Angiolam D, angiolam D]	6.0	4.7 ± 1.9	4.3	6.5 ± 2.2	3.38	8.2 ± 4.5	–	0.8 ± 0.6	–	P. falciparum SI (selectivity index) ([1]; listed as Angiolam D (4)): 37.1; IC50 [5, 8]: 27.8 ± 3.7 µM
Nc1nc(N)nc(Nc2ccc([As]3SCC(CO)S3)cc2)n1 (centres unmarked) [Melarsoprol, reference compound]	–	–	–	–	–	–	–	–	–	IC50 [2]: 0.02 µM
O=C(Cn1ccnc1[N+](=O)[O-])NCc1ccccc1 [Benznidazole, reference compound]	–	–	–	2.47	–	–	–	–	–	–

From paper PMC10913735, “New myxobacteria of the Myxococcaceae clade produce angiolams with antiparasitic activities” (Microbiology Spectrum, 2024)
